Results published in ChEMBL document CHEMBL3407392, “Design, syntheses, structure-activity relationships and docking studies of coumarin derivatives as novel selective ligands for the CB2 receptor” (Eur J Med Chem, 2015).

Species: Homo sapiens
Assay: Selectivity index, ratio of EC50 for CB1 receptor (unknown origin) to EC50 for CB2 receptor (unknown origin)

Structure (SMILES) | Ratio EC50
CCCCOc1cccc2cc(C(=O)NC(C)CCC)c(=O)oc12 (stereo not drawn) | > 31.2
O=C(NCC1CCOCC1)c1cnc(Nc2ccc(Cl)cc2Cl)nc1C(F)(F)F [GW842166X] | > 23.2
CCCCOc1cccc2cc(C(=O)NC(CC)CC)c(=O)oc12 | > 76.9
CCCCCOc1cccc2cc(C(=O)NC3CCCCC3)c(=O)oc12 | > 40.8
CCCCOc1cccc2cc(C(=O)NC(C)C)c(=O)oc12 | > 97.1
CCCCOc1cccc2cc(C(=O)NC3CCCC3)c(=O)oc12 | > 12.6
CCCCOc1cccc2cc(C(=O)NC3CCCCC3)c(=O)oc12 | > 69.4
CCCCOc1cccc2cc(C(=O)NC(C)(C)C)c(=O)oc12 | > 10.3

Target: T1, Cannabinoid receptor 2 (Homo sapiens, UniProt P34972)
T1 sequence (P34972 whole entry): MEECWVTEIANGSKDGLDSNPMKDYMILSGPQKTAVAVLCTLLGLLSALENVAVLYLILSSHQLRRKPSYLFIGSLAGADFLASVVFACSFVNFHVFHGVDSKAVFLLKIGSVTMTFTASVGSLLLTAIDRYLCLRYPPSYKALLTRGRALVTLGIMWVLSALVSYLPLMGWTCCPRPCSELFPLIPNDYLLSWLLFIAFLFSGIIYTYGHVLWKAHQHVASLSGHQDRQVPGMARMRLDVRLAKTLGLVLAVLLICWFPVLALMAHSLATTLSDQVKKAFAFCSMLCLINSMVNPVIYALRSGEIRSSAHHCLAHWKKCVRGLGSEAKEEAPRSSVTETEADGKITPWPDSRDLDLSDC
Assay: Agonist activity at CB2 receptor (unknown origin) expressed in CHO cells at 10 uM by calcium mobilization assay relative to control
Format: functional, cell-based

Structure (SMILES) | Activity [%]
CCCCOc1cccc2cc(C(=O)NC(C)C(C)C)c(=O)oc12 (stereo not drawn) | 41
CCCCOc1cccc2cc(C(=O)NC3CC3)c(=O)oc12 | 34
CCCCOc1cccc2cc(C(=O)NN3CCCCC3)c(=O)oc12 | 37
CCCCCCOc1cccc2cc(C(=O)NC3CCCCC3)c(=O)oc12 | 36
O=C(NC1CCCCC1)c1cc2cccc(OCC3CC3)c2oc1=O | 42
O=C(NC1CCCCC1)c1cc2cccc(OCc3ccccc3)c2oc1=O | 33

Species: Homo sapiens
Assay: Selectivity index, ratio of IC50 for CB1 receptor (unknown origin) to IC50 for CB2 receptor (unknown origin)

Structure (SMILES) | Ratio IC50
CCCOc1c(OC)ccc2cc(C(=O)NC3CCCCC3)c(=O)oc12 | > 12.4
CCCCOc1c(OC)ccc2cc(C(=O)NC(C)CCC)c(=O)oc12 (stereo not drawn) | > 526
CCCCOc1c(OC)ccc2cc(C(=O)NCC3CC3)c(=O)oc12 | > 8.5
CCCCCOc1c(OC)ccc2cc(C(=O)NCc3ccc4c(c3)OCO4)c(=O)oc12 | > 15.5
CCCCOc1c(OC)ccc2cc(C(=O)NC(CC)CC)c(=O)oc12 | > 500
CCCCCOc1c(OC)ccc2cc(C(=O)NC3CCCCC3)c(=O)oc12 | > 164
CCCCOc1c(OC)ccc2cc(C(=O)NC3CCCCC3)c(=O)oc12 | > 454
CCCCOc1c(OC)ccc2cc(C(=O)NC(C)C)c(=O)oc12 | > 61.7
CCCCOc1cc(Br)cc2cc(C(=O)NC3CCCCC3)c(=O)oc12 | > 111
CCCCOc1c(OC)ccc2cc(C(=O)NC(C)C(C)C)c(=O)oc12 (stereo not drawn) | > 357
CCCCCOc1cc(Br)cc2cc(C(=O)NC3CCCCC3)c(=O)oc12 | 4.6
O=C(NC1CCCCC1)c1cc2cc(Br)cc(OCC3CC3)c2oc1=O | > 13.4

Target: T2, Cannabinoid receptor 1 (Homo sapiens, UniProt P21554)
T2 sequence (P21554 whole entry): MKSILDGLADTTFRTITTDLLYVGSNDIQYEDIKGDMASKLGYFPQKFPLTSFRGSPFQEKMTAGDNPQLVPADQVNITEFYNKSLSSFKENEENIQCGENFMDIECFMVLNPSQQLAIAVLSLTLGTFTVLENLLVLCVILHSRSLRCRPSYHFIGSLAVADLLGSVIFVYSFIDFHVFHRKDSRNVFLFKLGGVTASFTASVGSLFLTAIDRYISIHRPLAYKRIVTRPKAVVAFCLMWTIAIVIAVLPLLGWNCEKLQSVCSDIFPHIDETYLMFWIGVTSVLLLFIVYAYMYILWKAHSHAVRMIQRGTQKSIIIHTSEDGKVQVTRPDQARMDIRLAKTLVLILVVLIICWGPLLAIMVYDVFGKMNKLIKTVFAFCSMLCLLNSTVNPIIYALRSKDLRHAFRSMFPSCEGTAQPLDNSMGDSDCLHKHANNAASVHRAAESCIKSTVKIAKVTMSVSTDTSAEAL
Assay: Agonist activity at CB1 receptor (unknown origin) expressed in CHO cells by calcium mobilization assay
Format: functional, cell-based

Structure (SMILES) | EC50 [nM]
CCCCOc1cccc2cc(C(=O)NC(C)C(C)C)c(=O)oc12 (stereo not drawn) | > 10000
CCCCOc1cccc2cc(C(=O)N3CCCCC3)c(=O)oc12 | > 10000
CCCCNC(=O)c1cc2cccc(OCCCC)c2oc1=O | > 10000
CCCCOc1cccc2cc(C(=O)NC(C)CCC)c(=O)oc12 (stereo not drawn) | > 10000
O=C(NCC1CCOCC1)c1cnc(Nc2ccc(Cl)cc2Cl)nc1C(F)(F)F [GW842166X] | > 10000
CCCCOc1cccc2cc(C(=O)NC3CC3)c(=O)oc12 | > 10000
CCCCOc1cccc2cc(C(=O)NN3CCOCC3)c(=O)oc12 | > 10000
CCCCOc1cccc2cc(C(=O)NC(CC)CC)c(=O)oc12 | > 10000
CCCCOc1cccc2cc(C(=O)NN3CCCCC3)c(=O)oc12 | > 10000
CCCCCOc1cccc2cc(C(=O)NC3CCCCC3)c(=O)oc12 | > 10000
CCCCOc1cccc2cc(C(=O)NC(C)C)c(=O)oc12 | > 10000
CCCOc1cccc2cc(C(=O)NC3CCCCC3)c(=O)oc12 | > 10000
CCOc1cccc2cc(C(=O)NC3CCCCC3)c(=O)oc12 | > 10000
CCCCOc1cccc2cc(C(=O)NCC3CC3)c(=O)oc12 | > 10000
CCCCOc1cccc2cc(C(=O)NC3CCCC3)c(=O)oc12 | > 10000
CCCCOc1cccc2cc(C(=O)NC34CC5CC(CC(C5)C3)C4)c(=O)oc12 | > 10000
CCCCOc1cccc2cc(C(=O)NCc3ccccc3)c(=O)oc12 | > 10000
CCCCCCOc1cccc2cc(C(=O)NC3CCCCC3)c(=O)oc12 | > 10000
O=C(NC1CCCCC1)c1cc2cccc(OCC3CC3)c2oc1=O | > 10000
CCCCOc1cccc2cc(C(=O)NC3CCCCC3)c(=O)oc12 | > 10000
CCCCOc1cccc2cc(C(=O)NC(C)(C)C)c(=O)oc12 | > 10000
O=C(NC1CCCCC1)c1cc2cccc(OCc3ccccc3)c2oc1=O | > 10000

Target: T2, Cannabinoid receptor 1
Format: functional, cell-based, CHO

Structure (SMILES) | IC50 [nM]
CCCOc1c(OC)ccc2cc(C(=O)NC3CCCCC3)c(=O)oc12 | > 10000
CCCCOc1c(OC)ccc2cc(C(=O)NC(C)CCC)c(=O)oc12 (stereo not drawn) | > 10000
CCCCOc1c(OC)ccc2cc(C(=O)NCC3CC3)c(=O)oc12 | > 10000
CCCCCCOc1cc(Br)cc2cc(C(=O)NC3CCCCC3)c(=O)oc12 | > 10000
CCCCCOc1c(OC)ccc2cc(C(=O)NCc3ccc4c(c3)OCO4)c(=O)oc12 | > 10000
CCCCOc1c(OC)ccc2cc(C(=O)NC(CC)CC)c(=O)oc12 | > 10000
CCCCCOc1c(OC)ccc2cc(C(=O)NC3CCCCC3)c(=O)oc12 | > 10000
CCCCOc1c(OC)ccc2cc(C(=O)NC3CCCCC3)c(=O)oc12 | > 10000
CCCCOc1cc(Br)cc2cc(C(=O)NC3CC3)c(=O)oc12 | > 10000
CCCCOc1c(OC)ccc2cc(C(=O)NC(C)C)c(=O)oc12 | > 10000
CCCCOc1cc(Br)cc2cc(C(=O)NC(C)C)c(=O)oc12 | > 10000
CCCCOc1cc(Br)cc2cc(C(=O)NC3CCCCC3)c(=O)oc12 | > 10000
CCCCOc1c(OC)ccc2cc(C(=O)NC(C)C(C)C)c(=O)oc12 (stereo not drawn) | > 10000
CCCOc1cc(Br)cc2cc(C(=O)NC3CCCCC3)c(=O)oc12 | > 10000
CCCCOc1cc(Br)cc2cc(C(=O)NN3CCOCC3)c(=O)oc12 | > 10000
CCCCCOc1cc(Br)cc2cc(C(=O)NC3CCCCC3)c(=O)oc12 | > 10000
O=C(NC1CCCCC1)c1cc2cc(Br)cc(OCC3CC3)c2oc1=O | > 10000

Target: T1, Cannabinoid receptor 2
Assay: Antagonist activity at CB2 receptor (unknown origin) expressed in CHO cells up to 10 uM incubated for 10 mins prior to CP55940 addition by calcium mobilization assay
Format: functional, cell-based

Structure (SMILES) | IC50 [nM]
CCCOc1c(OC)ccc2cc(C(=O)NC3CCCCC3)c(=O)oc12 | 807
CCCCOc1c(OC)ccc2cc(C(=O)NC(C)CCC)c(=O)oc12 (stereo not drawn) | 19
CCCCOc1c(OC)ccc2cc(C(=O)NCC3CC3)c(=O)oc12 | 1180
CCCCCCOc1cc(Br)cc2cc(C(=O)NC3CCCCC3)c(=O)oc12 | > 10000
CCCCCOc1c(OC)ccc2cc(C(=O)NCc3ccc4c(c3)OCO4)c(=O)oc12 | 644
CCCCOc1c(OC)ccc2cc(C(=O)NC(CC)CC)c(=O)oc12 | 20
CCCCCOc1c(OC)ccc2cc(C(=O)NC3CCCCC3)c(=O)oc12 | 61
CCCCOc1c(OC)ccc2cc(C(=O)NC3CCCCC3)c(=O)oc12 | 22
CCCCOc1cc(Br)cc2cc(C(=O)NC3CC3)c(=O)oc12 | > 10000
CCCCOc1c(OC)ccc2cc(C(=O)NC(C)C)c(=O)oc12 | 162
CCCCOc1cc(Br)cc2cc(C(=O)NC(C)C)c(=O)oc12 | > 10000
CCCCOc1cc(Br)cc2cc(C(=O)NC3CCCCC3)c(=O)oc12 | 90
CCCCOc1c(OC)ccc2cc(C(=O)NC(C)C(C)C)c(=O)oc12 (stereo not drawn) | 28
CCCOc1cc(Br)cc2cc(C(=O)NC3CCCCC3)c(=O)oc12 | > 10000
CCCCOc1cc(Br)cc2cc(C(=O)NN3CCOCC3)c(=O)oc12 | > 10000
CCCCCOc1cc(Br)cc2cc(C(=O)NC3CCCCC3)c(=O)oc12 | 2190
O=C(NC1CCCCC1)c1cc2cc(Br)cc(OCC3CC3)c2oc1=O | 746

Target: T1, Cannabinoid receptor 2
Assay: Binding affinity to CB2 receptor (unknown origin)

Structure (SMILES) | Ki [nM]
CCCCCOc1c(OC)ccc2c(=O)n(CCc3ccc(O)cc3)ccc12 | 3.7
CCCCCOc1c(OC)ccc2c1CCN(CCc1ccc(O)cc1)C2=O | 1.8
CCCCCOc1cc(C(=O)NC2CCc3cc(O)c(O)cc3C2)ccc1OC (stereo not drawn) | 18
CCCCCOc1cc(C(=O)NCCc2ccncc2)ccc1OC | 73
CCCCCOc1cc(/C=C/C(=O)NCCc2ccncc2)ccc1OC | 44
CCCCCOc1c(OC)ccc2cc(C(=O)NCc3ccc4c(c3)OCO4)c(=O)oc12 | 0.087
CCCCCOc1ccc2c(c1OCCCCC)CN(CCc1ccc(N)cc1)C2=O | 0.11
CCCCCOc1ccc(C(=O)NCCc2ccc(N)cc2)cc1SCCCCC | 1.9
CCCCCNc1c(OC)ccc2c1CN(CCc1ccc(O)cc1)C2=O | 0.088
CCCCOc1c(OC)ccc2cc(C(=O)NCCc3ccccc3)c(=O)[nH]c12 | 0.33
CCCCCOc1c(OC)ccc2c(=O)n(CCc3ccncc3)ccc12 | 8.4
CCCCCOc1c(OC)ccc2c1C(=O)N(CCc1ccc(O)cc1)C2=O | 7.3
CCCCCOc1c(OC)ccc2c1CN(CCc1ccc(O)cc1)C2=O | 11
CCCCCOc1ccc(C(=O)NCCc2ccc(O)cc2)cc1OCCCCC | 0.44
CCCCCOc1cc(/C=C/C(=O)NCCc2ccc(O)cc2)ccc1OC | 4.8
CCCCCSc1cc(/C=C/C(=O)NCCc2ccc(O)cc2)ccc1OC | 1.1
CCCCCOc1c(OC)ccc2cc(C(=O)N3CCCc4ccccc4C3)c(=O)[nH]c12 | 118
CCCCCOc1cc(C(=O)NCCc2ccc(O)cc2)ccc1OC | 2.5
CCCCCOc1c(OC)ccc2cc(C(=O)N3CCCC(C(=O)OCC)C3)c(=O)[nH]c12 (stereo not drawn) | 100
CCCCCOc1c(OC)ccc2c1CN(CCc1ccc(N)cc1)C2=O | 14

Target: T1, Cannabinoid receptor 2
Assay: Agonist activity at CB2 receptor (unknown origin) expressed in CHO cells by calcium mobilization assay
Format: functional, cell-based

Structure (SMILES) | EC50 [nM]
CCCCOc1cccc2cc(C(=O)N3CCCCC3)c(=O)oc12 | > 10000
CCCCNC(=O)c1cc2cccc(OCCCC)c2oc1=O | > 10000
CCCCOc1cccc2cc(C(=O)NC(C)CCC)c(=O)oc12 (stereo not drawn) | 321
O=C(NCC1CCOCC1)c1cnc(Nc2ccc(Cl)cc2Cl)nc1C(F)(F)F [GW842166X] | 431
CCCCOc1cccc2cc(C(=O)NN3CCOCC3)c(=O)oc12 | > 10000
CCCCOc1cccc2cc(C(=O)NC(CC)CC)c(=O)oc12 | 130
CCCCCOc1cccc2cc(C(=O)NC3CCCCC3)c(=O)oc12 | 245
CCCCOc1cccc2cc(C(=O)NC(C)C)c(=O)oc12 | 103
CCCOc1cccc2cc(C(=O)NC3CCCCC3)c(=O)oc12 | > 10000
CCOc1cccc2cc(C(=O)NC3CCCCC3)c(=O)oc12 | > 10000
CCCCOc1cccc2cc(C(=O)NCC3CC3)c(=O)oc12 | > 10000
CCCCOc1cccc2cc(C(=O)NC3CCCC3)c(=O)oc12 | 793
CCCCOc1cccc2cc(C(=O)NC34CC5CC(CC(C5)C3)C4)c(=O)oc12 | > 10000
CCCCOc1cccc2cc(C(=O)NCc3ccccc3)c(=O)oc12 | > 10000
CCCCOc1cccc2cc(C(=O)NC3CCCCC3)c(=O)oc12 | 144
CCCCOc1cccc2cc(C(=O)NC(C)(C)C)c(=O)oc12 | 972
